Results taken from patent US10183944B2 (Asana Biosciences, LLC, priority 2011, dated 2019).
Where “and” joins values, the source holds several entries; their conditions need not be identical. Identical values can stand only once. Marks after values point to notes of the source that are not given here.

Tested on: Arthus reaction in female c57BL/6 mice
Test: In vivo acute study: Arthus reaction model in mice
Set-up: species or system mouse
Conditions: for OD % Inhibition: dye extravasation (OD 610 nm)
From the text: Arthus reaction is a type of local type III hypersensitivity reaction. Type III hypersensitivity reactions are immune complex-mediated, and involve the deposition of antigen/antibody complexes mainly in the vascular walls, serosa (pleura, pericardium, synovium), and glomeruli. This involves formation of antigen/antibody complexes after the intradermal injection of an antibody. If the animal was previously injected with antigen and dye (has circulating antigen), an Arthus reaction occurs. This manifests as local vasculitis due to deposition of immune complexes in dermal blood vessels. Activation of complement and recruitment of PMNs ensue, resulting in an inflammatory response and extravasation of dye to the skin. Compounds which can inhibit this complex process can have therapeutic implications in wide range of inflammatory and auto-immune disorders. See, Pine, “Inflammation and bone erosion are suppressed in models of rheumatoid arthritis following treatment with a novel Syk inhibitor”; Clin. Immunol. (2007) 124 (3): 244-57; and Sylvia, “R-406, an Orally Available Spleen Tyrosine Kinase Inhibitor Blocks Fc Receptor Signaling and Reduces Immune Complex-Mediated Inflammation”, JPET 319:998-1008, 2006, which are herein incorporated by reference.
Female c57BL/6 mice were given an antigen injection in which the antigen was 0.1% Ovalbumin (OVA) in PBS containing 1% Evans blue (EB) at the concentration of 10 mL/kg intravenously under Isoflurane anesthesia [2.5 mg/mouse with a body weight of 25 g]. Ten minutes after antigen injection; the animals were injected with the rabbit anti-OVA IgG (50 μg in 25 μL/site) (Polysciences; Cat #23744) intradermally on the shaved back at two top locations. Animals were also injected with phosphate buffered saline (PBS, 25 μL) intradermally on the back at two bottom and opposite locations to serve as negative control. The mice were euthanized by cervical dislocation 4 hours after antigen (Ovalbumin) challenge. Skin tissue was assessed for edema by tracing the edema area on to a transparent plastic sheet. Punch biopsies of the injection sites were collected.
Edema area was measured manually by scale. Two diameters were taken and averaged for each animal.
Punch biopsies of the injection sites (using 10 mm skin biopsy punches) were incubated in 2 mL of sodium sulfate: acetone mixture (0.6+1.4 mL) at room temperature for 16-18 hours. The supernatants were removed from digested tissues by centrifuging at 4000 rpm for 10 minutes, filtered and were read spectrophotometrically at 610 nm.
The percent inhibition of dye leakage was calculated with respect to control by the formula: […]
The percent inhibition of edema area was calculated with respect to control by the formula: […]
Means of different groups were compared with control using One way ANOVA followed by Dunnett's test. Significance was represented as follows.

Cl.O=c1[nH]ncc2nc(-c3ccccc3)nc(Nc3ccc(CN4CCNCC4)cc3)c12 [Example 7, 2-phenyl-4-(4-(piperazin-1-ylmethyl)phenylamino)pyrimido[4,5-d]pyridazin-5(6H)-one hydrochloride]
Edema area % Inhibition (dose 3 mg/Kg): 41*** % | Edema area % Inhibition (dose 10 mg/Kg, hydrochloride): 45*** % and 53*** % and 30% | Edema area % Inhibition (dose 30 mg/Kg, hydrochloride): 68*** % and 74*** % | OD % Inhibition (dose 3 mg/Kg): 40*** % | OD % Inhibition (dose 30 mg/Kg, hydrochloride): 67*** % and 65*** %

O=C(O)C1CCN(c2ccc(Nc3nc(-c4ccccc4)nc4cn[nH]c(=O)c34)cc2)CC1 [Example 13, 1-(4-(5-oxo-2-phenyl-5,6-dihydropyrimido[4,5-d]pyridazin-4-ylamino)phenyl)piperidine-4-carboxylic acid]
Edema area % Inhibition (dose 10 mg/Kg): 53*** % | Edema area % Inhibition (dose 30 mg/Kg): 40** % | OD % Inhibition (dose 10 mg/Kg): 27% | OD % Inhibition (dose 30 mg/Kg): 30%

O=C(O)C1CC12CCN(c1ccc(Nc3nc(-c4ccccc4)nc4cn[nH]c(=O)c34)cc1)CC2 (stereo not shown) [Example 19, 6-(4-(5-oxo-2-phenyl-5,6-dihydropyrimido[4,5-d]pyridazin-4-ylamino)phenyl)-6-azaspiro[2.5]octane-1-carboxylic acid]
Edema area % Inhibition (dose 3 mg/Kg): 48*** % | Edema area % Inhibition (dose 30 mg/Kg): 60*** % | OD % Inhibition (dose 3 mg/Kg): 53*** % | OD % Inhibition (dose 30 mg/Kg): 60*** %
